Results from patent US20210267194A1, “SEED TREATMENT METHOD” (priority 2018, published 2021).
≈ marks a conversion by molar mass, not a printed value. Like-named read-outs stand apart in the source and are kept apart here.

How the values were obtained:
[1] = footnote a: Chemistry Dashboard of the US Environmental Protection Agency; cited from earlier work
[2] = Density of the active ingredient (Table 1); assay type: physicochemical
[3] = footnote a: Chemistry Dashboard of the US Environmental Protection Agency; cited from earlier work; remark: listed apart in the source
[4] = Solubility in water of the active ingredient (Table 1); details: for solubility: water
[5] = physchem; details: water

For Fc1ccc([C@]2(Cn3cncn3)O[C@H]2c2ccccc2Cl)cc1 (racemic) [Epoxiconazole], the Density [1] is listed as 1.42^a g/mL.
Work on Cc1c(F)c(F)c(COC(=O)[C@@H]2[C@H](/C=C(\Cl)C(F)(F)F)C2(C)C)c(F)c1F (racemic) [Tefluthrin] yielded a Density [2] of 1.48 g/mL.
In the case of CO/C=C(/C(=O)OC)c1ccccc1Oc1cc(Oc2ccccc2C#N)ncn1 [Azoxystrobin], the Density [1] is listed as 1.34^a g/mL and the “Solubility in Water” value [3] is listed as 6.01^a mg/L.
For CC1(C)C(C=C(Cl)Cl)C1C(=O)OC(C#N)c1ccc(F)c(Oc2ccccc2)c1 (stereo not drawn) [Beta-Cyfluthrin], the Density [2] was 1.35 g/mL and the “Solubility in Water” value [4] was 0.0012 mg/L (≈ 0.00276 µM).
In the case of COC(=O)Nc1nc2ccccc2[nH]1 [Carbendazim], the Density [2] is given as 1.45 g/mL, the solubility [5] is given as 8 µg/mL (≈ 41.8 µM) and the Density [1] is given as 1.39^a g/mL.
In the case of CNC(=O)c1cc(Cl)cc(C)c1NC(=O)c1cc(Br)nn1-c1ncccc1Cl [Chlorantraniliprole], the Density [1] is given as 1.65^a g/mL.
Compound CN/C(=N\[N+](=O)[O-])NCc1cnc(Cl)s1 [Clothianidin] has a Density [2] of 1.61 g/mL and a solubility [4] of 340 µg/mL (≈ 1360 µM).
In the case of CNC(=O)c1cc(C#N)cc(C)c1NC(=O)c1cc(Br)nn1-c1ncccc1Cl [Cyantraniliprole], the Density [1] is listed as 1.65^a g/mL.
For CC(C1CC1)C(O)(Cn1cncn1)c1ccc(Cl)cc1 (stereo not drawn) [Cyproconazole], the Density [1] is given as 1.31^a g/mL.
In the case of CC[S+]([O-])c1c(C#N)nn(-c2c(Cl)cc(C(F)(F)F)cc2Cl)c1N (stereo not drawn) [Ethiprole], the Density [2] is reported as 1.69 g/mL.
Work on CSC1=N[C@@](C)(c2ccccc2)C(=O)N1Nc1ccccc1 [Fenamidone] yielded a Density [2] of 1.29 g/mL and a solubility [5] of 7.8 µg/mL (≈ 25 µM).
N#Cc1nn(-c2c(Cl)cc(C(F)(F)F)cc2Cl)c(N)c1[S+]([O-])C(F)(F)F (stereo not drawn) [Fipronil] showed a Density [2] of 1.71 g/mL and a solubility [5] of 3.78 µg/mL (≈ 8.65 µM).
For O=[N+]([O-])c1cc(C(F)(F)F)c(Cl)c([N+](=O)[O-])c1Nc1ncc(C(F)(F)F)cc1Cl [Fluazinam], the Density [1] is given as 1.80^a g/mL and the “Solubility in Water” value [3] is given as 0.68^a mg/L.
In the case of Cc1cc(C(F)(C(F)(F)F)C(F)(F)F)ccc1NC(=O)c1cccc(I)c1C(=O)NC(C)(C)CS(C)(=O)=O [Flubendiamide], the Density [1] is listed as 1.78^a g/mL.
For N#Cc1c[nH]cc1-c1cccc2c1OC(F)(F)O2 [Fludioxinil], the Density [2] was 1.54 g/mL and the “Solubility in Water” value [4] was 1.8 mg/L (≈ 7.25 µM).
Work on O=C(NCCc1ncc(C(F)(F)F)cc1Cl)c1ccccc1C(F)(F)F [Fluopyram] yielded a Density [2] of 1.53 g/mL and a solubility [4] of 16 µg/mL (≈ 40.3 µM).
In the case of CO/N=C(/C1=NOCCO1)c1ccccc1Oc1ncnc(Oc2ccccc2Cl)c1F [Fluoxastrobin], the Density [2] is reported as 1.42 g/mL and the solubility [4] is reported as 2.29 µg/mL (≈ 4.99 µM).
With O=C1C=C(N(Cc2ccc(Cl)nc2)CC(F)F)CO1 [Flupyradifurone] the Density [2] was 1.43 g/mL and the “Solubility in Water” value [4] was 3200 mg/L (≈ 11100 µM).
For O=c1c2cc(F)ccc2nc(-n2cncn2)n1-c1ccc(Cl)cc1Cl [Fluquinconazole], the Density [2] was 1.58 g/mL.
In the case of O=[N+]([O-])NC1=NCCN1Cc1ccc(Cl)nc1 [Imidacloprid], the Density [2] is reported as 1.54 g/mL and the “Solubility in Water” value [4] is reported as 610 mg/L (≈ 2390 µM).
Compound CC(C)C1CCC(Cc2ccc(Cl)cc2)C1(O)Cn1cncn1 (stereo not drawn) [Ipconazole] has a Density [2] of 1.2 g/mL and a solubility [5] of 9.34 µg/mL (≈ 28 µM).
Compound CC(C)NC(=O)N1CC(=O)N(c2cc(Cl)cc(Cl)c2)C1=O [Iprodione] has a Density [2] of 1 g/mL and a solubility [5] of 6.8 µg/mL (≈ 20.6 µM).
In the case of N#Cc1ccccc1NC(=O)c1snc(Cl)c1Cl [Isotianil], the Density [1] is given as 1.56^a g/mL and the “Solubility in Water” value [4] is given as 0.5 mg/L (≈ 1.68 µM).
For COCC(=O)N(c1c(C)cccc1C)[C@H](C)C(=O)OC [Metalaxyl-M], the Density [1] is listed as 1.09^a g/mL.
For COCC(=O)N(c1c(C)cccc1C)C(C)C(=O)OC (stereo not drawn) [Metalaxyl], the Density [2] was 1.2 g/mL and the solubility [4] was 8400 µg/mL (≈ 30100 µM).
CNC(=O)Oc1cc(C)c(SC)c(C)c1 [Methiocarb] gave a Density [2] of 1.25 g/mL and a solubility [4] of 27 µg/mL (≈ 120 µM).
For CNC(=O)/C(=N/OC)c1ccccc1Oc1ccccc1 [Metominostrobin], the Density [1] is listed as 1.13^a g/mL.
In the case of O=C(Nc1ccccc1)N(Cc1ccc(Cl)cc1)C1CCCC1 [Pencycuron], the Density [2] is reported as 1.22 g/mL and the “Solubility in Water” value [4] is reported as 0.3 mg/L (≈ 0.912 µM).
In the case of Cc1nn(C)c(F)c1C(=O)Nc1ccccc1C(C)CC(C)C (stereo not drawn) [Penflufen], the Density [1] is given as 1.18^a g/mL and the “Solubility in Water” value [4] is given as 10.9 mg/L (≈ 34.3 µM).
In the case of CO/C=C(/C(=O)OC)c1ccccc1COc1cccc(C(F)(F)F)n1 [Picoxystrobin], the Density [1] is given as 1.28^a g/mL and the “Solubility in Water” value [3] is given as 8.30^a mg/L.
For CC12CC1(C)C(=O)N(c1cc(Cl)cc(Cl)c1)C2=O (stereo not drawn) [Procymidone], the Density [1] is listed as 1.43^a g/mL.
In the case of CCCC1COC(Cn2cncn2)(c2ccc(Cl)cc2Cl)O1 (stereo not drawn) [Propiconazole], the Density [1] is given as 1.39^a g/mL.
Compound OC(Cc1ccccc1Cl)(Cn1nc[nH]c1=S)C1(Cl)CC1 (stereo not drawn) [Prothioconazole] has a Density [2] of 1.36 g/mL and a solubility [4] of 300 µg/mL (≈ 871 µM).
In the case of COC(=O)N(OC)c1ccccc1COc1ccn(-c2ccc(Cl)cc2)n1 [Pyraclostrobin], the Density [1] is listed as 1.34^a g/mL and the “Solubility in Water” value [3] is listed as 26.0^a mg/L.
In the case of CC(c1ccc(C(F)(F)F)nc1)S(C)(=O)=NC#N (stereo not drawn) [Sulfoxaflor], the Density [1] is given as 1.34^a g/mL.
Compound CC(C)(C)C(O)(CCc1ccc(Cl)cc1)Cn1cncn1 (stereo not drawn) [Tebuconazole] has a Density [2] of 1.25 g/mL.
In the case of N#C/N=C1\SCCN1Cc1ccc(Cl)nc1 [Thiacloprid], the Density [2] is reported as 1.46 g/mL and the solubility [4] is reported as 184 µg/mL (≈ 728 µM).
For CN1COCN(Cc2cnc(Cl)s2)/C1=N\[N+](=O)[O-] [Thiamethoxam], the Density [1] is given as 1.76^a g/mL and the “Solubility in Water” value [3] is given as 1278^a mg/L.
For CS/C(C)=N\OC(=O)N(C)SN(C)C(=O)O/N=C(\C)SC [Thiodicarb], the Density [2] was 1.47 g/mL and the solubility [4] was 22.2 µg/mL (≈ 62.6 µM).
In the case of CC(C)(C)C(O)C(Oc1ccc(Cl)cc1)n1cncn1 (stereo not drawn) [Triadimenol], the Density [2] is reported as 1.27 g/mL and the solubility [5] is reported as 72 µg/mL (≈ 243 µM).
For CON=C(C(=O)OC)c1ccccc1CON=C(C)c1cccc(C(F)(F)F)c1 [Trifloxystrobin], the Density [2] was 1.36 g/mL and the solubility [5] was 0.61 µg/mL (≈ 1.49 µM).
For Abamectin, the Density [1] is given as 1.28^a g/mL and the “Solubility in Water” value [3] is given as 36.4^a mg/L.
In the case of Spinetoram, the Density [1] is given as 1.18^a g/mL and the “Solubility in Water” value [3] is given as 162^a mg/L.
For Spinosad, the Density [1] is given as 1.20^a g/mL and the “Solubility in Water” value [3] is given as 295^a mg/L.
